Where two headings read alike, the source gives them in different places.
Experiments:
MG63.3 cells = assay: Sulforhodamine B cytotoxicity / cell viability assay; assay type: cell-based; conditions: Homo sapiens, MG-63.3
Experimental: (§1) Murine K7M2 and human MG63.3 OS cells were treated with increasing concentrations of LY5 for 2 hrs or 7 hrs. Western blotting was performed for pSTAT3 and STAT3 as indicated above to confirm inhibition of STAT3 phosphorylation in the cell lines prior to initiation of the PuMA assay. In addition, a sulforhodamine B colorimetric assay was performed to assess the cytotoxicity of LY5 in K7M2 and MG63.3 cells as previously described.
(§2) MG63.3 and K7M2 cell lines were exposed to increasing concentrations of LY5 to determine the IC50 (A). Western blot analysis was performed to determine the dose and duration of LY5 exposure required to inhibit STAT3 phosphorylation (B-C). Serial imaging of fluorescently labeled MG63.3 and K7M2 cells was performed in ex vivo LY5 treated lung sections (D). Metastatic burden was quantified by evaluation of the percent tumor burden (mean normalized fluorescent area). Data are reported as the mean ± standard deviation. In MG 63.3 experiment, p < 0.0001 Kruskal-Wallis test, p < 0.05 10 μM vs control at days 7, 14, and 21, 10 μM vs 1 μM at days 7, 14, and 21, 50 μM vs control at days 7, 14, and 21, and 50 μM vs 10 μM at days 7, 14, and 21 post-test Dunn. In K7M2 experiment, p < 0.0001 Kruskal-Wallis test, p < 0.05 10 μM vs control at days 14 and 21, 10 μM vs 0.1 μM at days 14 and 21, and 10 μM vs 1 μM at days 14 and 21, post-test Dunn.

[1] = test system: RH30, ES-3, ES-7, EW-8 cells; assay: Combined STAT3 knockdown-LY5 cell viability assay (Alamar Blue); assay type: cell-based, human; conditions: NC siRNA or STAT3 siRNA 48 hrs, then 0.5 μM or 1 μM LY5 48 hrs
Experimental: Cell lines were transfected with 10 nM of AllStars negative control siRNA or human STAT3-targeting siRNA #7 (5’-[…]-3’) (Qiagen, Germantown, MD) using Lipofectamine RNAiMAX (Life Technologies, Carlsbad, CA) according to the manufacturer’s instructions. After 72 hrs of transfection, cells were harvested and lysed for immunoblotting. For the combined STAT3 knockdown–LY5 cell viability assay, negative control siRNA or STAT3 siRNA #7 was transfected into cell lines. After 48 hrs, cells were treated with 0.5 μM or 1 μM of LY5 for another 48 hrs. Cell viability was then analyzed using Alamar Blue as described above.
Fig 6 Effects of LY5 are not mediated via STAT3 inhibition. (A) Antitumor activity of LY5 against OS-1 PDX model of OS. […] After 72 hours of transfection, cells were harvested and analyzed for total (T) STAT3 and GAPDH protein expression by immunoblotting. […] Cell viability was then determined using Alamar Blue staining. […]
(A) ES cell line ES-3 was transfected with either negative control siRNA (NC siRNA) or STAT3-targeting siRNA #7. After 72 hrs of transfection, cells were harvested and analyzed for total (T) STAT3 and GAPDH protein expression by immunoblotting. […] Cell viability was evaluated using Alamar Blue staining. […]

[2] = PK in normal beagle dogs, oral capsules of LY5 powder; assay type: in vivo; conditions: plasma, fasted; for AUC(0-inf): read-out: AUC inf-obs
Experimental: LY5 was evaluated in two normal purpose-bred beagle dogs (female 8.8 kg; male 11.2 kg) receiving a single dose of 1mg/kg LY5 IV then orally by gavage 7 days later to establish the PK profile and assess the spectrum of clinical toxicities associated with LY5 administration. The oral dosing was repeated in the fed and fasted state. The starting dose was determined based on allometric scaling from the maximal tolerated dose studies performed in mice. Dogs were washed out for 30 days, and then given a dose of 25 mg in a capsule orally, followed by a 50 mg capsule dose 14 days later. Full PK sampling was performed over 24 hours following each dose of LY5. The dogs received LY5 and were used for the PK analysis but were not euthanized upon conclusion of the study.
The liquid chromatography-mass spectrometry system utilized for these analyses consisted of a Dionex Ultimate 3000 RSLCnano High Performance Liquid Chromatography system and a Thermo Finnigan Quantum Ultras EMR mass spectrometer with an electrospray ionization source. Positive ionization mode was used for both LY5 and the internal standard, hesperetin. Plasma samples were collected and analyzed by the OSU James Comprehensive Cancer Center Pharmacoanalytical Shared Resource. Pharsight Phoenix WinNonlin software using non-compartmental analysis was used to generate PK parameters including maximum plasma concentration (Cmax), amount of time that drug is present at Cmax (Tmax), and total area under the curve (AUC). AUC all and AUC last were calculated by linear trapezoidal method of concentration-time curve up to the last measured point. AUC inf-obs was calculated by log-linear extrapolation of the terminal phase beyond the last collection time. Bioavailability (F) was calculated for IP and PO administration routes. Plasma stability and liver microsomal stability of LY5 were also assessed through this shared resource.

K7M2 cells = assay: Sulforhodamine B cytotoxicity / cell viability assay; assay type: cell-based, murine; conditions: Mus musculus
Experimental: as §1, §2

[3] = female, Dog #2, 25 mg oral capsule
[4] = female, Dog #2, 50mg oral capsule
[5] = male, Dog #1, 25 mg oral capsule
[6] = male, Dog #1, 50mg oral capsule

NS(=O)(=O)c1cccc2c1C(=O)C=C(Nc1cccnc1)C2=O [LY5, 5,8-dioxo-6-(pyridin-3-ylamino)-5,8-dihydronaphthalene-1-sulfonamide]
IC50 (MG63.3 cells): 3 µM | response to LY5 (cell viability) with or without STAT3 depletion [1]: comparable | AUC(0-t) [2, 3]: 2.51 µM·h | Tmax [2, 3]: 2 h | AUC(0-inf) [2, 3]: 2.53 µM·h | AUC(0-t) [2, 4]: 5.93 µM·h | Tmax [2, 4]: 4 h | AUC(0-inf) [2, 4]: 5.96 µM·h | AUC(0-t) [2, 5]: 2.62 µM·h | Cmax [2, 5]: 230 nM | Tmax [2, 5]: 2 h | AUC(0-inf) [2, 5]: 2.69 µM·h | AUC(0-t) [2, 6]: 2.92 µM·h | Cmax [2, 6]: 840 nM | Tmax [2, 6]: 3 h | AUC(0-inf) [2, 6]: 2.97 µM·h | Cmax ([2]; Dog #2, 25 mg oral capsule): 516 nM | Cmax ([2]; Dog #2, 50mg oral capsule): 909 nM | IC50 (K7M2 cells): 1.5 µM

Reference: paper PMC5531494, “Target specificity, in vivo pharmacokinetics, and efficacy of the putative STAT3 inhibitor LY5 in osteosarcoma, Ewing's sarcoma, and rhabdomyosarcoma” (PLoS ONE, 2017)
